Results on 1 sequence are retold here after patent US20070054848A1, “Composition and method for nerve regeneration” (priority 2003, published 2007).

One assay relates to DRG neurons. Description: Neurite outgrowth assay, DRG neurons. Format: cell-based, mice.
The next assay has as its target T1, p75 (Homo sapiens, UniProt P08138).
T1 construct: host or cells: 293T cells (p75)
T1 sequence (P08138 29-427): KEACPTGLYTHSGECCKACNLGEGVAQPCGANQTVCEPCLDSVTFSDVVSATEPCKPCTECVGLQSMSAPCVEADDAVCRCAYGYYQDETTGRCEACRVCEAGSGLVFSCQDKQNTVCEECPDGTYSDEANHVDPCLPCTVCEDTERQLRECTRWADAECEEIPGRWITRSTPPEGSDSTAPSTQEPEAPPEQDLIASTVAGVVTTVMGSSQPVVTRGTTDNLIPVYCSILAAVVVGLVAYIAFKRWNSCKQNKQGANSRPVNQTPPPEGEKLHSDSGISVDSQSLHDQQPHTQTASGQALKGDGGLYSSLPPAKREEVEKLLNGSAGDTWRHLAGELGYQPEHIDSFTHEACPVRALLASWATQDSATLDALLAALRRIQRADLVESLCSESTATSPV
Description: Co-precipitation of p75 and Rho GDI with purified recombinant proteins. Format: binding. The conditions noted are these: 1 μM GST-Rho GDI and Pep5 at the indicated concentrations.

The next assay deals with hippocampal neurons. Format: cell-based. The conditions noted are these: data not shown.
The subject of assay [1] is superior cervical ganglion neurons. Format: cell-based. The conditions noted are these: 100 ng/ml BDNF; data not shown.

“Also recorded” adds a separate entry of the source.

Consider CFFRGGFFNHNPRYC [Pep5], for which the “neurite outgrowth of neurons which express the short isoform but not the full-length p75” value in the assay with DRG neurons was “did not affect the neurite outgrowth”. Further, on p75, the “association of p75 with Rho GDI” value is reported as “inhibited the association of p75 with Rho GDI dose dependently; also recorded: inhibits the binding of p75 with Rho GDI dose dependently”. Also, the “NGF-induced promotion of the neurite outgrowth” value in the assay with hippocampal neurons is given as “did not inhibit”. In addition, in assay [1], the “cell death of superior cervical ganglion neurons” value is listed as “did not inhibit”.
